86 compounds from ChEMBL document CHEMBL1157539, “Thousands of chemical starting points for antimalarial lead identification” (Nature, 2010) can be followed below.

The test system of this assay is Plasmodium falciparum. The assay can be described thus: GSK_TCMDC: Inhibition of Plasmodium falciparum 3D7 in whole erythrocytes, using parasite LDH activity as an index of growth. The assay is classed as functional, organism-based. To be noted: Plasmodium falciparum, 3D7.

Structures are written as SMILES.

`NCc1ccc(CNCc2cccc(-c3cccc(-c4nc5ccccc5[nH]4)c3)c2)cc1` returned an XC50 of 489 nM. The result for `CCCCCNc1nc2nc(N)nc(N)c2nc1-c1ccccc1` reads 954 nM. On to `CCOc1ccc(-n2nc3c(Cl)nnc(-c4ccccc4)c3c2-c2ccccc2)cc1`, for which the XC50 came to 226 nM. The result for `CC(C)CCNc1nc(NCCCc2ccccc2)c2cc(O)ccc2n1` reads 166 nM. The result for `COc1ccc(C2CC(c3ccccc3O)=NN2C(=O)c2ccco2)cc1OC` (stereo unspecified) reads 947 nM; that for `CCc1c(CCNCCCCCCNCCc2ccc(OC)c(OC)c2C)ccc(OC)c1OC`, 1570 nM. The result for `O=C(Nc1ccc(I)cc1)N1CCc2sccc2C1CN1CCCCC1` (stereo unspecified) reads 1200 nM; that for `CCc1ccc(C2CCN(CCCCNC(=O)c3ccc(-c4ccc(C#N)cc4)cc3)CC2)c(OCCO)c1`, 938 nM. Regarding `CC(Cc1ccc(C(=O)OCCOC(=O)c2ccc(CC(C)NCC(O)c3cccc(C(F)(F)F)c3)cc2)cc1)NCC(O)c1cccc(C(F)(F)F)c1` (stereo unspecified), the XC50 was 820 nM. The result for `CCN(CCCN1CCCCC1)c1cc(C)nc(Nc2ccc(F)c(C(F)(F)F)c2)n1` reads 147 nM; that for `NCc1ccc(-c2ccccc2CN(C(=O)Nc2ccccc2)C2CCN(Cc3ccccc3)CC2)cc1`, 880 nM; that for `O=C(Nc1ccc(OC2CCN(Cc3ccccc3)C2)c(Cl)c1)c1ccc(F)cc1` (stereo unspecified), 791 nM. The compound `FC(F)(F)c1ccc2[nH]c(-c3ccc(-c4cccc(CN5CCC(CCN6CCCCC6)CC5)c4)cc3)nc2c1` displayed an XC50 of 153 nM. The result for `CC(C)(C)OC(=O)C1CCCN(Cc2ccc(-c3cccc(-c4nc5ccccc5[nH]4)c3)cc2)C1` (stereo unspecified) reads 358 nM; that for `COc1ccc2nccc([C@@H](O)CN3CCC(NCc4ccc5scnc5c4)CC3)c2c1`, 399 nM; that for `CCN(CCCN1CCCCC1)c1cc(C)nc(Nc2ccc(C)c(F)c2)n1`, 273 nM.

As for `COc1cc(Cc2cnc(N)nc2N)c2ccsc2c1OC`, the XC50 is 1070 nM.

Compound `N#Cc1ccc(N/C(=N\c2ccccc2Br)N(C2CCCCC2)C2CCCCC2)c(O)c1` gave an XC50 of 785 nM. The result for `CC(C)CC1c2[nH]c3ccccc3c2CCN1C(=O)CCc1ccccc1` (stereo unspecified) reads 965 nM; that for `N#Cc1ccc(C=CC(=O)NC2CCC(CCN3CCc4ccc(-c5cnccn5)cc4CC3)CC2)cc1` (stereo unspecified), 613 nM; that for `CCc1cn2c3c(cc(C(=O)N[C@@H](Cc4cc(F)cc(F)c4)[C@H](O)CNC4CCOCC4)cc13)N(C)S(=O)(=O)CC2`, 33.6 nM. The result for `Nc1nc2c(ncn2OC[C@H](CO)OCP(=O)(O)O)c(=O)[nH]1` reads 341 nM; that for `CC(=O)Nc1ccc(CNCCc2ccc(NC(=O)c3cc(Cl)cc(Cl)c3)cc2)cc1`, 684 nM; that for `COC(=O)[C@@H](NC(=O)[C@H](CC(C)C)Nc1ccc(C#N)c2ccccc12)c1ccc(O)cc1`, 788 nM. The result for `O=c1ccccn1CCCC1CCCCN1` (stereo unspecified) reads 809 nM. The compound `COc1cc2nc(NCCc3ccccc3)nc(NCCc3ccccc3)c2cc1OC` yielded an XC50 of 282 nM. The result for `COc1ccc2c(NN=CC=Cc3ccccc3)ccnc2c1` reads 770 nM. In the case of `CC(C)(C)c1ccc(Cn2nc(C(=O)N3CCN(C(=O)C4CCCO4)CC3)c3ccccc32)cc1` (stereo unspecified), the XC50 came out at 1320 nM.

Turning to `CCCCOc1c(CCC)cc(Cc2cnc(N)nc2N)cc1CCC`, the XC50 came out at 629 nM.

`COc1ccccc1CNc1ccnc(N2CC(Oc3ccc(F)cc3)C2)n1` showed an XC50 of 850 nM. The result for `C[C@H](Cc1ccc(Oc2ccc(C[C@@H](C)NC[C@H](O)c3cccc(Cl)c3)cc2)cc1)NC[C@H](O)c1cccc(Cl)c1` reads 560 nM; that for `COc1cc(-c2ccc3c(-c4ccc(C(=O)N5CCN(C)CC5)cc4)n[nH]c3n2)cc(OC)c1OC`, 1330 nM; that for `CC(=O)Nc1ccc(C(=O)Nc2cccc(-c3cccc(-c4nc5cc(C(F)(F)F)ccc5[nH]4)c3)c2)cn1`, 73.7 nM. The result for `CCOC(C(=O)OCC1CCCN(C)C1)(c1ccccc1)c1ccccc1` (stereo unspecified) reads 868 nM; that for `O=C(Nc1ccc(Oc2ccccc2)cc1)N[C@H]1CCN(Cc2ccc(OCCCN3CCCCC3)cc2)C1`, 179 nM.

As for `O=C(NC1CC1)c1cnc(N2CCC(Cc3ccccc3)CC2)c(Cl)c1`, the XC50 was 672 nM. The result for `N=C(N)c1ccc(NN=Cc2ccc(Oc3ccc(C(=N)N)cc3)cc2)cc1` reads 90.2 nM. The result for `COc1cccc(NC(=O)Cn2c(C)c(C#N)c3ccccc32)c1` reads 878 nM; that for `CN(C)C(CNc1ncnc2cc(Cl)ccc12)Cc1ccccc1` (stereo unspecified), 872 nM. Regarding `C=C[C@]1(C)C[C@@H](OC(=O)CSC2CN3CCC2C3)[C@@]2(C)C3C(=O)CC[C@@]3(CC[C@H]2C)[C@@H](C)[C@@H]1O` (stereo partly specified), the XC50 came to 689 nM. The result for `O=C(Nc1cccnc1)c1cc(-c2cc(Cl)ccc2O)n[nH]1` reads 719 nM; that for `O=C(N1CCN(c2ccc(C(F)(F)F)cc2[N+](=O)[O-])CC1)C(Cl)(Cl)Cl`, 713 nM; that for `Cc1nc(-c2ccc(-c3ccc(C(=O)Nc4ccc(C(C)C)c(OCCN(C)C)c4)cc3)c(C)c2)no1`, 870 nM. The result for `Cc1ccc2[nH]c(-c3ccc(C=CC(=O)NCc4ccc(Cl)c(Cl)c4)cc3)nc2c1` reads 901 nM; that for `CC(=O)c1ccccc1OCCSc1nnc(Cc2cccs2)n1C1CCCCC1`, 919 nM; that for `Cc1ccc(Cl)cc1N1CCN(CCCNC(=O)C2CCN(c3nc4ccccc4[nH]3)CC2)CC1`, 895 nM. The result for `C=CCN1C(=O)CN(S(=O)(=O)c2ccc(-n3nc(C)cc3C)cc2)C1=S` reads 941 nM; that for `O=C(CCc1cccnc1)Nc1cccc(-c2ccc(-c3nc4cc(C(F)(F)F)ccc4[nH]3)s2)c1`, 953 nM.

`CN1CCc2ccc(NC(=O)Nc3cccc(C(=O)c4ccccc4)c3)cc2C1` came in with an XC50 of 917 nM. `CN1CC=C(c2c[nH]c3ccc(OC(=O)c4ccccc4)cc23)C1`: the XC50 worked out at 800 nM. The result for `Cc1cccc2nc(-c3ccc(-c4cccc(NC(=O)Nc5ccsc5)c4)cc3)[nH]c12` reads 799 nM; that for `CC(=O)Nc1ccc(C(=O)Nc2ccc(-c3cccc(-c4nc5ccccc5[nH]4)c3)cc2)cn1`, 238 nM; that for `CC(C)(C)c1ccc(CN2CCC(CNC(=O)c3cc(-c4cccc(C(F)(F)F)c4)cs3)C2)cc1` (stereo unspecified), 1030 nM.

In the case of `O=C(/C=C/c1ccc(Cl)c(Cl)c1)NCCC1CCC(N2CCC(c3c[nH]c4ccccc34)CC2)CC1` (stereo unspecified), the XC50 amounted to 197 nM. The result for `O=C(Cn1c(CCc2cccc(F)c2F)nc(=O)c2ccccc21)N(CCN1CCCCC1)Cc1ccc(-c2ccc(C(F)(F)F)cc2)cc1` reads 757 nM.

Turning to `Cc1ccc2nc(-c3ccc(/C=C/C(=O)NC4CCN(Cc5ccccc5)CC4)cc3)[nH]c2c1C`, the XC50 amounted to 632 nM. With `CC(=O)c1cccc2cc(C(=O)NC3CCC(CCN4CCc5ccc(C#N)cc5C4)CC3)[nH]c12` (stereo unspecified), the XC50 is 787 nM. The result for `CCN(CC)Cc1cc(Nc2ccnc3cc(Cl)ccc23)ccc1O` reads 160 nM.

The compound `Cc1cc(N)c2cc(NC(=O)c3cc(C(F)(F)F)cc(C(F)(F)F)c3)ccc2n1` showed an XC50 of 86.8 nM. The result for `COc1cccc(C2(C)CCN(CCCCNC(=O)c3ccc(NC(=O)c4ccc(Cl)cc4)cc3)CC2)c1` reads 831 nM. The result for `CC(Nc1ncc(-c2ccsc2)c(-c2nccs2)n1)c1ccc2c(c1)OCCO2` (stereo unspecified) reads 175 nM. The result for `COCc1nc(-c2ccccc2)nc(N2CCN(C(=O)NC(C)C)CC2)c1Cc1ccccc1F` reads 1000 nM; that for `Oc1cc(NCCCNC2CCc3c(Cl)cc(Cl)cc32)nc2ccccc12` (stereo unspecified), 934 nM. Regarding `N#Cc1ccc(CN2CCC(Oc3ccc(NC(=O)c4cccs4)cc3Cl)CC2)cc1`, the XC50 worked out at 577 nM.

Compound `Cc1ccc(-c2cc(C(=O)Nc3ccc(S(=O)(=O)N(C)Cc4ccccc4)cc3)[nH]n2)c(O)c1` had an XC50 of 845 nM.

`O=C(O)C[C@H](NC(=O)c1cc(-c2ccc3c(c2)OCO3)no1)C(=O)O.O=C(O)C[C@H](NC(=O)c1conc1-c1ccc2c(c1)OCO2)C(=O)O` displayed an XC50 of 194 nM. The result for `CC(C)(C)Oc1ccc(C[C@@H]2NC3(C(=O)N(Cc4ccc(Cl)c(Cl)c4)c4ccccc43)C3C(=O)N(c4ccc(Br)cc4)C(=O)C32)cc1` (stereo partly specified) reads 1040 nM; that for `O=C(NCCCCN1CCC(c2cccc3ccccc23)CC1)c1ccc(-c2ccc(C(F)(F)F)cn2)cc1`, 867 nM.

Compound `CC(=O)c1cc(N2CCCC2)ccc1N` showed an XC50 of 15.5 nM.

`Cc1ccnc(-n2c(C)cc(C=C3SC(=Nc4ccccc4)N(Cc4ccco4)C3=O)c2C)c1` registered an XC50 of 237 nM. The result for `O=C(/C=C/c1ccc(Cl)c(Cl)c1)NC1CCC(CN2CCC(c3nc4ccccc4s3)CC2)CC1` (stereo unspecified) reads 1020 nM; that for `Cc1cc(N2CC=CCC2)nc(NC(=N)Nc2ccc(Br)cc2)n1`, 690 nM. The result for `OCC1CCN(Cc2cccc(-c3ccc(-c4nc5cc(C(F)(F)F)ccc5[nH]4)cc3)c2)CC1` reads 662 nM; that for `CCCCN(CCCC)/C(=N/C(=N)NCc1ccc(Cl)c(Cl)c1)NCCCCCCN/C(=N\C(=N)NCc1ccc(Cl)c(Cl)c1)N(CCCC)CCCC`, 399 nM.

`Cc1cc(C)c(C)c(OCCCON2C(=N)N=C(N)NC2(C)C)c1C` had an XC50 of 3.2 nM. The compound `CCN(CC)CCCC(C)Nc1c(-c2ccc(Br)cc2)cnc2ccccc12` (stereo unspecified) showed an XC50 of 703 nM. `CCCN(Cc1nnc(-c2cccs2)o1)C(=O)C1COc2ccccc2O1` (stereo unspecified) registered an XC50 of 850 nM. The result for `CC1CN(c2ccc(NC(=O)c3ccsc3)cc2C(=O)N2CCN(Cc3ccc(C(C)(C)C)cc3)CC2)CC(C)O1` (stereo unspecified) reads 866 nM. Take `CCN(CC)CCN(Cc1ccc(-c2ccc(Cl)s2)cc1)C(=O)Cn1c(CCc2cccc(F)c2F)nc(=O)c2ccccc21`: the XC50 is 1140 nM. The result for `COc1ccc(CNc2ncc(-c3ccsc3)c(-c3nccs3)n2)cc1OC` reads 89 nM; that for `CC(C)Cc1nc(N)nc(N)c1-c1ccc(Cl)cc1`, 145 nM. The result for `N=C(N)NCCCCN(Cc1ccccc1)c1ccccc1` reads 745 nM; that for `N#CC(NC(=O)C=Cc1ccccc1)c1ccccc1` (stereo unspecified), 181 nM; that for `CCOC(=O)c1c(CSc2ccccc2)oc2cc(CN(C)C)c(O)c(Cl)c12`, 657 nM.

In turn, `O=c1cc(NCCCNC2CCOc3c(I)cc(Cl)cc32)[nH]c2ccccc12` (stereo unspecified) came in with an XC50 of 832 nM. Regarding `O=C(Nc1cccc(CN2CCCN(Cc3ncc[nH]3)CC2)c1)c1cc2ccccc2s1`, the XC50 came out at 734 nM.
